This passage reports solubility and solubility in water results from US12529029B2, “Cell culture medium comprising small peptides” (LIFE TECHNOLOGIES CORPORATION, priority 2010, dated 2026).

In brackets after ≈: the same amount, converted by molar mass. Where a SMILES comes first, the peptide text is derived from it. Bridges are numbered along the chain shown (N, C = ends). Roman numbers before positions name the chains, in order.

One data set can be described thus: physchem. It is filed as physicochemical. The procedure:
An exemplary cell culture medium containing the dipeptides alanyl tyrosine (AlaTyr) and alanyl cysteine (which forms a disulfide dimer, [AlaCys]2) was prepared. Specifically, the dipeptides, alanyl tyrosine and alanyl cysteine were added as dry powder to an aqueous basal cell culture medium containing glucose and a mixture of concentrated amino acids and mixed until dissolved. […].

The conditions of data set [1]: 25° C., by way of comparison; cited from earlier work.

As usually defined, the solubility is the concentration that dissolves in the medium under given conditions. A lower solubility goes with little dissolved substance. For `C[C@H](N)C(=O)N[C@@H](Cc1ccc(O)cc1)C(=O)O` [AlaTyr, alanyl tyrosine] (H-Ala-Tyr-OH), the solubility in the data set “physchem” is about 15.4 mg/mL (≈ 61 mM). Same read-out and setting: to `C[C@H](N)C(=O)N[C@@H](CSSC[C@H](NC(=O)[C@H](C)N)C(=O)O)C(=O)O` [[AlaCys]2 dimer, N,N′-di-L-Alanyl-L-Cystine] (I: H-Ala-Cys-OH / II: H-Ala-Cys-OH; disulfide I:2-II:2) belongs about 8.7 mg/mL (≈ 22.7 mM).

For the compound `N[C@@H](CSSC[C@H](N)C(=O)O)C(=O)O` [L-Cystine], the solubility in water result in data set [1] was “about 0.11 g/L”.
